From patent US20240368150A1 (Hoffmann-La Roche Inc., priority 2021, published 2024) come the findings set out here.

Read-outs that look alike come from different tables or passages of the source.

Assay [1] has as its system primary human T-cells. As to the kind of experiment: Proliferation assay after 5 days (CellTiter-Glo, CD3 stimulation; PBS counter screen). It counts as cell-based. The note with it: CD3 stimulation; for Emax / Emax proliferation (% activation): 5 days, normalized to reference compound A1 as stimulator control = 100%, DMSO neutral control; for Emax: read-out: Emax proliferation (% activation); for EC50: primary human T-cells, CellTiter-Glo after 5 days, EC50 of fitted sigmoidal curve, read-out: Tcell Proliferation CD3 EC50. The method in brief:
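Proliferation is measured 5 days post-treatment as ATP-dependent luminescence. Flags mark compounds that activated unstimulated cells or harmed viability.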
A general note: Cellular ATP, detected with luciferase, serves as a proxy for viable cell number.

The test system of assay [2] is primary human T-cells.

With `CC(C)(C)c1nnc(-c2cc3c(cc2F)S(=O)(=O)C[C@H](N)C(=O)N3Cc2ccc(OC(F)F)cc2)o1` [Example 223, (3R)-3-amino-7-(5-tert-butyl-1,3,4-oxadiazol-2-yl)-5-[[4-(difluoromethoxy)phenyl]methyl]-8-fluoro-1,1-dioxo-2,3-dihydro-1λ^6,5-benzothiazepin-4-one], in the assay on primary human T-cells [1] (Homo sapiens, T-cell, 120 h), the Emax is 128% and the EC50 was less than 162 nM. The EC50 with primary human T-cells [2] was greater than 20000 nM.
The matching figures for `CC(C)(C)n1nnc(-c2cc3c(cc2F)S(=O)(=O)C[C@H](N)C(=O)N3Cc2ccc(F)cc2)n1` [Example 32]: 101%, 808 nM and 7630 nM.
`COC(=O)N1CCC(OC)(c2nnc(-c3cc4c(cc3F)S(=O)(=O)C[C@H](N)C(=O)N4Cc3ccc(Cl)cc3)o2)CC1` [Example 132, methyl 4-methoxy-4-[5-[(3R)-3-amino-5-[(4-chlorophenyl)methyl]-8-fluoro-1,1,4-trioxo-2,3-dihydro-1λ^6,5-benzothiazepin-7-yl]-1,3,4-oxadiazol-2-yl]-piperidine-1-carboxylate]: in the assay with primary human T-cells [1] (Homo sapiens, T-cell, 120 h), the Emax was found to be 97%. Moreover, the EC50 with primary human T-cells [1] (Homo sapiens, T-cell, 120 h) was 150 nM; in the assay on primary human T-cells [2], 1950 nM.
The like results for `N[C@H]1CS(=O)(=O)c2cc(F)c(-c3noc(N4CCOC5CC54)n3)cc2N(Cc2ccc(Cl)cc2)C1=O` (stereo partly drawn) [Example 192, (3R)-3-amino-5-[(4-chlorophenyl)methyl]-8-fluoro-7-[5-(2-oxa-5-azabicyclo[4.1.0]heptan-5-yl)-1,2,4-oxadiazol-3-yl]-1,1-dioxo-2,3-dihydro-1λ^6,5-benzothiazepin-4-one] were, in that order, 110%, 100 nM and 125 nM.
The matching figures for `COC(F)(c1nc(-c2cc3c(cc2F)S(=O)(=O)C[C@H](N)C(=O)N3Cc2ccccc2)no1)C(F)(F)F` (stereo partly drawn) [Example 351, (3R)-3-amino-5-benzyl-8-fluoro-1,1-dioxo-7-[5-(1,2,2,2-tetrafluoro-1-methoxy-ethyl)-1,2,4-oxadiazol-3-yl]-2,3-dihydro-1λ^6,5-benzothiazepin-4-one]: 107%, 113 nM and 288 nM.
As for `CN1CC(c2nnc(-c3cc4c(cc3F)S(=O)(=O)C[C@H](N)C(=O)N4Cc3ccc(Cl)cc3)o2)CC(F)(F)C1` (stereo partly drawn) [Example 153, (3R)-3-amino-5-[(4-chlorophenyl)methyl]-7-[5-(5,5-difluoro-1-methyl-3-piperidyl)-1,3,4-oxadiazol-2-yl]-8-fluoro-1,1-dioxo-2,3-dihydro-1λ^6,5-benzothiazepin-4-one], the “Emax proliferation (% activation)” value in the assay with primary human T-cells [1] is listed as 150 % activation. For the same compound, the EC50 in the assay with primary human T-cells [1] (Homo sapiens, T-cell, 120 h) worked out at 112 nM; in the assay with primary human T-cells [2] it was 246 nM.
For `N[C@H]1CS(=O)(=O)c2cc(F)c(-c3nnc(NC4CCCN(CC(F)(F)F)C4)o3)cc2N(Cc2ccc(Cl)cc2)C1=O` (stereo partly drawn) [Example 492, (3R)-3-amino-5-[(4-chlorophenyl)methyl]-8-fluoro-1,1-dioxo-7-[5-[[1-(2,2,2-trifluoroethyl)-3-piperidyl]amino]-1,3,4-oxadiazol-2-yl]-2,3-dihydro-1λ^6,5-benzothiazepin-4-one], the Emax with primary human T-cells [1] (Homo sapiens, T-cell, 120 h) stood at 88%. For the same compound, the EC50 with primary human T-cells [1] (Homo sapiens, T-cell, 120 h) came out at 671 nM; in the assay with primary human T-cells [2], 638 nM.
The like results for `CC(C)(C)c1nnc(-c2ccc3c(c2)N(Cc2ccc(Oc4ccc(C(F)(F)F)cn4)cc2)C(=O)[C@@H](N)CS3(=O)=O)o1` [Example 440, (3R)-3-amino-7-(5-tert-butyl-1,3,4-oxadiazol-2-yl)-1,1-dioxo-5-[[4-[[5-(trifluoromethyl)-2-pyridyl]oxy]phenyl]methyl]-2,3-dihydro-1λ^6,5-benzothiazepin-4-one] were, in that order, 110%, 2520 nM and 2510 nM.
The matching figures for `COC(F)(c1nnc(-c2ccc3c(c2)N(Cc2ccc(Cl)cc2)C(=O)[C@@H](N)CS3(=O)=O)o1)C(F)(F)F` (stereo partly drawn) [Example 388, (3R)-3-amino-5-[(4-chlorophenyl)methyl]-1,1-dioxo-7-[5-(1,2,2,2-tetrafluoro-1-methoxy-ethyl)-1,3,4-oxadiazol-2-yl]-2,3-dihydro-1λ^6,5-benzothiazepin-4-one]: 129%, 166 nM and 331 nM.
The like results for `CNCC(=O)N[C@H]1CS(=O)(=O)c2cc(F)c(-c3nnc(C(C)(C)C)o3)cc2N(Cc2ccc(Cl)cc2)C1=O` [Example 265, N-[(3R)-7-(5-tert-butyl-1,3,4-oxadiazol-2-yl)-5-[(4-chlorophenyl)methyl]-8-fluoro-1,1,4-trioxo-2,3-dihydro-1λ^6,5-benzothiazepin-3-yl]-2-(methylamino)acetamide] were, in that order, 143%, 884 nM and greater than 20000 nM.
As to “(3R)-3-amino-7-[5-[4-(chloromethyl)-4-(hydroxymethyl)cyclohexyl]-1,3,4-oxadiazol-2-yl]-5-[(4-chlorophenyl)methyl]-8-fluoro-1,1-dioxo-2,3-dihydro-1λ^6.5-benzothiazepin-4-one [Example 482]”, in the assay on primary human T-cells [1], the “Emax proliferation (% activation)” value was 106 % activation and the EC50 was determined as 786 nM. Moreover, the EC50 in the assay on primary human T-cells [2] was 1250 nM.
On to `N[C@H]1CS(=O)(=O)c2cc(F)c(-c3noc(C(F)C(F)(F)F)n3)cc2N(Cc2ccc(Cl)cc2)C1=O` (stereo partly drawn) [Example 296, (3R)-3-amino-5-[(4-chlorophenyl)methyl]-8-fluoro-1,1-dioxo-7-[5-(1,2,2,2-tetrafluoroethyl)-1,2,4-oxadiazol-3-yl]-2,3-dihydro-1λ^6,5-benzothiazepin-4-one], for which the Emax with primary human T-cells [1] (Homo sapiens, T-cell, 120 h) is 66%. Further, the EC50 with primary human T-cells [1] (Homo sapiens, T-cell, 120 h) stood at 687 nM; with primary human T-cells [2] it was 710 nM.
On to `CCc1ncn(-c2cc3c(cc2F)S(=O)(=O)C[C@H](N)C(=O)N3Cc2ccc(Cl)cc2)n1` [Example 525, (3R)-3-amino-5-[(4-chlorophenyl)methyl]-7-(3-ethyl-1,2,4-triazol-1-yl)-8-fluoro-1,1-dioxo-2,3-dihydro-1λ^6,5-benzothiazepin-4-one], for which, in the assay with primary human T-cells [1] (Homo sapiens, T-cell, 120 h), the Emax was 67% and the EC50 amounted to 935 nM. This compound registered an EC50 in the assay with primary human T-cells [2] of 3510 nM.
On to `N[C@H]1CS(=O)(=O)c2cc(F)c(-c3nnc(CC(F)(F)F)o3)cc2N(Cc2ccc(Cl)cc2)C1=O` [Example 68, (3R)-3-Amino-5-[(4-chlorophenyl)methyl]-8-fluoro-1,1-dioxo-7-[5-(2,2,2-trifluoroethyl)-1,3,4-oxadiazol-2-yl]-2,3-dihydro-1λ^6,5-benzothiazepin-4-one], for which, in the assay on primary human T-cells [1] (Homo sapiens, T-cell, 120 h), the Emax came to 91% and the EC50 was determined as 5140 nM. For the same compound, the EC50 with primary human T-cells [2] was greater than 20000 nM.
The like results for `N[C@H]1CS(=O)(=O)c2cc(F)c(-c3nnc(C4CC5(C4)CC(F)(F)C5)o3)cc2N(Cc2ccc(Cl)cc2)C1=O` [Example 94, (3R)-3-amino-5-[(4-chlorophenyl)methyl]-7-[5-(2,2-difluorospiro[3.3]heptan-6-yl)-1,3,4-oxadiazol-2-yl]-8-fluoro-1,1-dioxo-2,3-dihydro-1λ^6,5-benzothiazepin-4-one] were, in that order, 85%, 18.1 nM and 161 nM.
